Measurements from patent US11173145B2, “Compounds useful as inhibitors of indoleamine 2,3-dioxygenase and/or tryptophan dioxygenase” (Board of Regents, The University of Texas System, priority 2017, dated 2021).

Molecular target: T1, IDO1 (Homo sapiens, UniProt P14902)
T1 construct: endogenous in cells; host or cells: HeLa cells (ATCC), IFNgamma-induced
Test: IDO1 cell-based assay (HeLa cells, IFNgamma-induced, N-formylkynurenine/L-tryptophan by RFMS)
Details: 10 ng/mL IFNgamma, 24 hours
Outline: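 N-formylkynurenine and tryptophan peak areas in media measured by RFMS (C18, isocratic, d-Trp standard), giving IC50 values by regression. Source: HeLa cells incubated 24 h with IFNgamma (10 ng/mL) plus test compound at 0.5% DMSO; parallel CellTiter-Glo viability read.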

T1 sequence (P14902 whole entry): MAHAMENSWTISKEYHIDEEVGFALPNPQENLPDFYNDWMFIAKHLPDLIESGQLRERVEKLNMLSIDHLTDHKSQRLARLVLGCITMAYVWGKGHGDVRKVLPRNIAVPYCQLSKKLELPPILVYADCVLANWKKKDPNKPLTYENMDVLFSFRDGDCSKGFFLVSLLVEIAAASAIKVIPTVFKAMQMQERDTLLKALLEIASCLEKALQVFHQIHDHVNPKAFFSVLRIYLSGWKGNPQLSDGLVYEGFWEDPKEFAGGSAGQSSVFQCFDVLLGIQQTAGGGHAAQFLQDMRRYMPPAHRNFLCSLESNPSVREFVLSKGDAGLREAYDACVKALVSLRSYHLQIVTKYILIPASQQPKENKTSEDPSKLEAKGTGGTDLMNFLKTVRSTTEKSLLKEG

Structure (SMILES) | IC50 [nM]
CC[C@@H](NC(=O)c1ccc(C#N)cc1)[C@H]1[C@@H]2C[C@@H](c3ccnc4ccc(F)cc34)C[C@@H]21 [Compound 277, 4-cyano-N-((R)-1-((1R,3S,5S,6r)-3-(6-fluoroquinolin-4-yl)bicyclo[3.1.0]hexan-6-yl)propyl)benzamide] | < 200
C[C@@H](NC(=O)c1ccc(C#N)cc1)[C@H]1[C@@H]2C[C@@H](c3ccnc4ccc(F)cc34)C[C@@H]21 [Compound 278, 4-cyano-N-((R)-1-((1R,3S,5S,6r)-3-(6-fluoroquinolin-4-yl)bicyclo[3.1.0]hexan-6-yl)ethyl)benzamide] | < 200
CC[C@@H](NC(=O)c1ccc(Cl)cc1)[C@H]1[C@@H]2C[C@@H](c3ncnc4ccc(F)cc34)C[C@@H]21 [Compound 279, 4-chloro-N-((R)-1-((1R,3S,5S,6r)-3-(6-fluoroquinazolin-4-yl)bicyclo[3.1.0]hexan-6-yl)propyl)benzamide] | < 200
O=C(NC[C@@H]1[C@H]2CN(c3ncnc4ccc(F)cc34)C[C@@H]12)c1ccc(Cl)cc1 [Compound 280, 4-chloro-N-(((1R,5S,6s)-3-(6-fluoroquinazolin-4-yl)-3-azabicyclo[3.1.0]hexan-6-yl)methyl)benzamide] | 200 to 2000
CC(C(=O)Nc1ccc(Cl)cc1)[C@H]1[C@@H]2C[C@@H](n3cnc4cc(F)c(F)cc43)C[C@@H]21 (stereo partly drawn) [Compound 281, N-(4-chlorophenyl)-2-((1R,3s, 5S, 6r)-3-(5,6-difluoro-1H-benzo[d]imidazol-1-yl)bicyclo[3.1.0]hexan-6-yl)propanamide] | < 200
CC[C@@H](NC(=O)c1ccc(C#N)cc1)[C@H]1[C@@H]2CC(N=[N+]=[N-])C[C@@H]21 (stereo partly drawn) [Compound 283, N-((1R)-1-((1R,5S,6r)-3-azidobicyclo[3.1.0]hexan-6-yl)propyl)-4-cyanobenzamide] | < 200
CC[C@@H](NC(=O)c1ccc(Cl)cc1)[C@H]1[C@@H]2C[C@@H](Nc3cc(Cl)ccc3[N+](=O)[O-])C[C@@H]21 [Compound 284, 4-chloro-N-((R)-1-((1R,3S,5S,6r)-3-((5-chloro-2-nitrophenyl)amino)bicyclo[3.1.0]hexan-6-yl)propyl)benzamide] | < 200
CC[C@@H](NC(=O)c1ccc(Cl)cc1)[C@H]1[C@@H]2C[C@H](c3ccnc4ccc(F)cc34)C[C@@H]21 [Compound 286, 4-chloro-N-((R)-1-((1R,3R,5S,6r)-3-(6-fluoroquinolin-4-yl)bicyclo[3.1.0]hexan-6-yl)propyl)benzamide] | < 200
CCOC(=O)C(C(=O)OCC)[C@@H]1C[C@@H]2[C@H](C1)[C@H]2[C@@H](CC)NC(=O)c1ccc(Cl)cc1 [Compound 290, diethyl 2-((1R,3S,5S,6r)-6-((R)-1-(4-chlorobenzamido)propyl)bicyclo[3.1.0]hexan-3-yl)malonate] | < 200
CC[C@@H](NC(=O)c1ccc(Cl)cc1)[C@H]1[C@@H]2C[C@@H](C(CO)CO)C[C@@H]21 [Compound 291, 4-chloro-N—((R)-1-((1R,3S,5S,6r)-3-(1,3-dihydroxypropan-2-yl)bicyclo[3.1.0]hexan-6-yl)propyl)benzamide] | 200 to 2000
CC[C@@H](NC(=O)c1ccc(Cl)cc1)[C@H]1[C@@H]2C[C@@H](c3cnn(C4CC4)c3)C[C@@H]21 [Compound 292, 4-chloro-N—((R)-1-((1R,3S,5S, 6r)-3-(1-cyclopropyl-1H-pyrazol-4-yl)bicyclo[3.1.0]hexan-6-yl)propyl)benzamide] | < 200
CC[C@@H](NC(=O)c1ccc(C#N)cc1)[C@H]1[C@@H]2C[C@@H](n3c(C)nc4ccc(C#N)cc43)C[C@@H]21 [Compound 293, 4-cyano-N-((R)-1-((1R,3S,5S,6r)-3-(6-cyano-2-methyl-1H-benzo[d]imidazol-1-yl)bicyclo[3.1.0]hexan-6-yl)propyl)benzamide] | 200 to 2000
CC[C@@H](NC(=O)c1ccc(C#N)cc1)[C@H]1[C@@H]2C[C@@H](n3c(C)nc4ccc(Cl)cc43)C[C@@H]21 [Compound 294, N-((R)-1-((1R,3S,5S,6r)-3-(6-chloro-2-methyl-1H-benzo[d]imidazol-1-yl)bicyclo[3.1.0]hexan-6-yl)propyl)-4-cyanobenzamide] | < 200
CC[C@@H](NC(=O)c1ccc(C#N)cc1)[C@H]1[C@@H]2C[C@@H](n3cc(C4CCOC4)nn3)C[C@@H]21 (stereo partly drawn) [Compound 295, 4-cyano-N-((1R)-1-((1R,3S,5S,6r)-3-(4-(tetrahydrofuran-3-yl)-1H-1,2,3-triazol-1-yl)bicyclo[3.1.0]hexan-6-yl)propyl)benzamide] | 200 to 2000
C[C@@H](NC(=O)c1ccc(C#N)cc1)[C@H]1[C@@H]2C[C@H](O)C[C@@H]21 [Compound 296, 4-cyano-N-((R)-1-((1R,3R,5S,6r)-3-hydroxybicyclo[3.1.0]hexan-6-yl)ethyl)benzamide] | > 5000
C[C@@H](NC(=O)c1ccc(C#N)cc1)[C@H]1[C@@H]2C[C@@H](O)C[C@@H]21 [Compound 297, 4-cyano-N-((R)-1-((1R,3S,5S,6r)-3-hydroxybicyclo[3.1.0]hexan-6-yl)ethyl)benzamide] | > 5000
C[C@@H](C(=O)Nc1ccc(Cl)cc1)[C@H]1[C@@H]2C[C@@H](n3cnc4cc(F)c(F)cc43)C[C@@H]21 [Compound 298, (R)-N-(4-chlorophenyl)-2-((1R,3S,5S,6r)-3-(5,6-difluoro-1H-benzo[d]imidazol-1-yl)bicyclo[3.1.0]hexan-6-yl)propanamide] | < 200
C[C@H](C(=O)Nc1ccc(Cl)cc1)[C@H]1[C@@H]2C[C@@H](n3cnc4cc(F)c(F)cc43)C[C@@H]21 [Compound 299, (S)-N-(4-chlorophenyl)-2-((1R,3R,5S,6r)-3-(5,6-difluoro-1H-benzo[d]imidazol-1-yl)bicyclo[3.1.0]hexan-6-yl)propanamide] | < 200
CC[C@@H](NC(=O)c1ccc(C#N)cc1)[C@H]1[C@@H]2C[C@@H](n3nnc(C(=O)OC)c3C(=O)OC)C[C@@H]21 [Compound 300, dimethyl 1-((1R,3S,5S,6r)-6-((R)-1-(4-cyanobenzamido)propyl)bicyclo[3.1.0]hexan-3-yl)-1H-1,2,3-triazole-4,5-dicarboxylate] | < 200
N#Cc1ccc(C(=O)NC[C@@H]2[C@H]3C[C@H](n4cnc5cc(F)c(F)cc54)C[C@@H]23)cc1 [Compound 302, 4-cyano-N-(((1R,3s,5S,6r)-3-(5,6-difluoro-1H-benzo[d]imidazol-1-yl)bicyclo[3.1.0]hexan-6-yl)methyl)benzamide] | < 200
CC[C@@H](NC(=O)c1ccc(Cl)cc1)[C@H]1[C@@H]2C[C@H](c3cncc(C4CC4)c3)C[C@@H]21 [Compound 303, 4-chloro-N-((R)-1-((1R,3R,5S,6r)-3-(5-cyclopropylpyridin-3-yl)bicyclo[3.1.0]hexan-6-yl)propyl)benzamide] | < 200
CC[C@@H](NC(=O)c1ccc(Cl)cc1)[C@H]1[C@@H]2C[C@@H](n3cc(I)cn3)C[C@@H]21 [Compound 304, 4-chloro-N-((R)-1-((1R,3S,5S,6r)-3-(4-iodo-1H-pyrazol-1-yl)bicyclo[3.1.0]hexan-6-yl)propyl)benzamide] | < 200
C=Cc1cnn([C@@H]2C[C@@H]3[C@H](C2)[C@H]3[C@@H](CC)NC(=O)c2ccc(Cl)cc2)c1 [Compound 305, 4-chloro-N-((R)-1-((1R,3S,5S,6r)-3-(4-vinyl-1H-pyrazol-1-yl)bicyclo[3.1.0]hexan-6-yl)propyl)benzamide] | < 200
CC[C@@H](NC(=O)c1ccc(F)cc1)[C@H]1[C@@H]2C[C@@H](n3cnc4cc(F)c(F)cc43)C[C@@H]21 [Compound 306, N—((R)-1-((3S,6s)-3-(5,6-difluoro-1H-benzo[d]imidazol-1-yl)bicyclo[3.1.0]hexan-6-yl)propyl)-4-fluorobenzamide] | < 200
CC[C@@H](NC(=O)c1ccnc(C)c1)[C@H]1[C@@H]2C[C@@H](n3cnc4cc(F)c(F)cc43)C[C@@H]21 [Compound 308, N-((R)-1-((1R,3S,5S,6r)-3-(5,6-difluoro-1H-benzo[d]imidazol-1-yl)bicyclo[3.1.0]hexan-6-yl)propyl)-2-methylisonicotinamide] | 200 to 2000
CC[C@@H](NC(=O)c1csc(C)n1)[C@H]1[C@@H]2C[C@@H](n3cnc4cc(F)c(F)cc43)C[C@@H]21 [Compound 309, N-((R)-1-((1R,3S,5S,6r)-3-(5,6-difluoro-1H-benzo[d]imidazol-1-yl)bicyclo[3.1.0]hexan-6-yl)propyl)-2-methylthiazole-4-carboxamide] | 200 to 2000
CC[C@@H](NC(=O)c1cccc(Cl)c1)[C@H]1[C@@H]2C[C@@H](n3cnc4cc(F)c(F)cc43)C[C@@H]21 [Compound 310, 3-chloro-N-((R)-1-((1R,3S,5S,6r)-3-(5,6-difluoro-1H-benzo[d]imidazol-1-yl)bicyclo[3.1.0]hexan-6-yl)propyl)benzamide] | < 200
CC[C@@H](NC(=O)c1ccc(C)nc1)[C@H]1[C@@H]2C[C@@H](n3cnc4cc(F)c(F)cc43)C[C@@H]21 [Compound 311, N-((R)-1-((1R,3S,5S,6r)-3-(5,6-difluoro-1H-benzo[d]imidazol-1-yl)bicyclo[3.1.0]hexan-6-yl)propyl)-6-methylnicotinamide] | < 200
CC[C@@H](NC(=O)c1cccc(F)c1)[C@H]1[C@@H]2C[C@@H](n3cnc4cc(F)c(F)cc43)C[C@@H]21 [Compound 312, N-((R)-1-((1R,3S,5S,6r)-3-(5,6-difluoro-1H-benzo[d]imidazol-1-yl)bicyclo[3.1.0]hexan-6-yl)propyl)-3-fluorobenzamide] | < 200
CC[C@@H](NC(=O)c1cccc(C#N)c1)[C@H]1[C@@H]2C[C@@H](n3cnc4cc(F)c(F)cc43)C[C@@H]21 [Compound 313, 3-cyano-N-((R)-1-((1R,3S,5S,6r)-3-(5,6-difluoro-1H-benzo[d]imidazol-1-yl)bicyclo[3.1.0]hexan-6-yl)propyl)benzamide] | < 200
